Experimental data: patent US12178825B2, “Method and compositions for forming a copper-containing complex and uses thereof” (COLD SPRING HARBOR LABORATORY, priority 2017, dated 2024)
“Also recorded” adds a separate entry of the source.

Experiments:
[1] = system: TX mice; test: Survival and tolerability in the TX mouse model of Wilson's disease; format: in vivo
Experimental: C3He-Atp7b^tx-j were obtained from the Jackson laboratory. All animal experiments were performed according to protocols approved by the Institutional Animal Use and Care Committee of Cold Spring Harbor laboratory. Mice were injected intraperitoneally (i.p.) with vehicle, or administered DPM-1001 intraperitoneally or orally at 5 mg/kg once every third day, for over a year. At the end of the study animals were euthanized and tissue samples were removed for biochemical studies.

[2] = system: MDA-MB-231 cells; test: MDA-MB-231 orthotopic xenograft; format: in vivo, SCID-beige mice; settings: mice with TNBC xenograft, 5 mg/kg intraperitoneally every day
Experimental: MDA-MB-231 cells (2×10^6) were injected orthotopically into mammary fat pads of SCID-beige mice (Tectonic lab) in 15 μl of a 1:1 mixture with DMEM and growth factor-reduced Matrigel (BD Biosciences). The animals were randomly assigned to three groups to receive saline (control), DPM-1001 (5 mg/kg) or DPM-1003 (5 mg/kg) intraperitoneally everyday once the tumors reached about 200 mm^3. Tumor growth was monitored every third day and volume in mm^3 was measured three times weekly by palpation using the formula: volume=width^2×length/2. Once the tumor volume reached above 500 mm^3 in saline treated mice, the study was terminated. Tumors from all mice were removed for biochemical analysis.

[3] = ESI-MS analysis of complex formation with copper salts; format: binding
Experimental: Eight equivalents of M(NO3)2·xH2O or MSO4·xH2O (M=Cu, Zn) were reacted with 1 eq. of DPM-1001 (1 mM in H2O). The reaction solutions were stirred at RT, 40° C. and 80° C. for 2 h. Mass spectra were recorded on a Bruker Esquire 6000 HCT quadrupole ion trap instrument (Bruker Daltonik GmbH, Leipzig, Germany), equipped with an electrospray ionization (ESI) source. Generation of the molecular formula of the DPM-1001/Cu(II) species and the comparison between the theoretical (simulated) and the measured isotopic patterns was performed using the DataAnalysis 4.0 software (Bruker).
Eight equivalents of M(NO3)2·xH2O or MSO4·xH2O were reacted with 1 eq. of DPM-1001, DPM-1003 or analog 2 (1 mM in H2O). The reaction solutions were stirred at RT, 40° C. and 80° C. for 2 h. Each sample was diluted 5-fold in 50% methanol, 0.1% formic acid and loaded into a 500 μL syringe. A Thermo Vantage triple quadrupole mass spectrometer (Thermo Scientific), equipped with an HESI spray source was coupled to an Accela HPLC system (Thermo Scientific). Mobile phase A consisted of 0.1% formic acid and mobile phase B consisted of 0.1% formic acid in methanol. Isocratic flow was set to 50% B at 200 μL/min. 200 μl samples were injected into the LC flow line via syringe pump at 10 μL/min and electrosprayed into the Vantage triple quadrupole mass spectrometer. A spray voltage of 4.3 kV was used along with a capillary temperature of 350° C. Each full MS scan was 0.5 s and data were collected with a scan range of 200 m/z to 900 m/z over 1 min.
Binding of compounds of Formula I other than DPM-1001 was also confirmed. In an ESI-MS test, compound DPM-1013 as hydrochloride salt was dissolved in distilled water at a concentration of 2 mM freshly before testing. It was then mixed with an equal volume copper sulfate (16 mM) or copper chloride solution (16 mM) for 2 h, rendering a concentration of DPM-1013 at 1 mM and the copper salt 8 mM. The mixture was then further diluted 100-fold before injection into an ESI-MS, making a final concentration of DPM-1013 of 10 μM and Cu 80 μM in the test.
Binding percentage=peak intensity of all DPM-1013-Cu complex/(peak intensity of all DPM-1013-Cu complex+peak intensity of free DPM-1013).

[4] = biological target: T1, PTP1B1-394 (Homo sapiens, UniProt P18031); test: Gel filtration for aggregation of PTP1B; settings: gel filtration elution profile
T1 construct: elution profile of PTP1B1-394 in the absence (circles) and presence (triangles) of DPM-1001; His-tag; made in house; host or cells: Escherichia coli BL21 (DE3)-RIL
Experimental: PTP1B (5 μM) was incubated with 10 μM MSI1436 in a final volume of 200 μl buffer (50 mM HEPES, pH 7.0, 100 mM NaCl, 0.2 mM EDTA, 2 mM DTT) at 4° C. The reaction mixture was then subjected to gel filtration on a Superdex 200 column (HR30/10; Pharmacia Biotech Inc.). Prior to loading the MSI1436-saturated protein sample, the column was equilibrated with 50 mM HEPES, pH 7.0, 100 mM NaCl, 0.2 mM EDTA and 2 mM DTT. The void volume (Vo) and total volume (Vt) were measured using blue dextran and Coomassie blue dye, respectively. Fractions of 0.5 ml were collected, and the protein concentration in each sample was determined by Bradford assay or by recording the UV absorption spectrum at 280 nm.

[5] = system: fibroblasts derived from Wilson's disease patients; test: Copper-induced toxicity in Wilson's disease patient-derived fibroblasts; format: cell-based
Experimental: HepG2 cells purchased from ATCC were cultured in RPMI media containing 10% FBS, 5% CO2 at 37 C. Control (AG09319) and Wilson's disease patient-derived fibroblasts (GM00032, GM00033, GM05257, GM12158, GM05798 and GM11778) were obtained from Coriell Biorepository and cultured in DMEM, 10% FBS, 5% CO2 at 37° C.
For cell survival assays, 10,000 cells were seeded in a 96 well plate and cultured until fully confluent (90%). To these cells, ATP7B siRNAs or scrambled siRNA (negative control) purchased from Qiagen and Santa Cruz Biotechnology were transfected. Lipofectamine RNAiMAX reagent (Thermofischer) and siRNAs were diluted into a final volume of 100 μl in Opti-MEM (Gibco). The mixture was incubated at room temperature for 30 min, following which 800 μl of Opti-MEM was added to the mixture. The above transfection solution was overlaid onto cells at a final concentration of 5 nM siRNA. Transfection of HepG2 cells with scrambled siRNA served as negative control. Twelve hours after the transfection, complete media was added to each well. Following which, knockdown efficiency was checked (24 hours later) and cells were exposed to varying concentration of copper (0-1 mM) for 12 h and cell viability was determined using the MTT assay as previously described (37). […]

[6] = system: PTP1B1-367, PTP1B1-346 and PTP1B1-321; test: Phosphatase assay with C-terminal truncation mutants; format: biochemical
Text: All common reagents were obtained from Thermo Fisher Scientific (Waltham, MA) or Sigma-Aldrich (St. Louis, MO). Difluoro-4-methylumbelliferyl phosphate (DiFMUP) was obtained from Invitrogen (cat #D22065). Solid black 384-well plates (cat #3573) for phosphatase assays were from Corning Incorporated (Corning, NY).

T1 sequence (P18031 1-394): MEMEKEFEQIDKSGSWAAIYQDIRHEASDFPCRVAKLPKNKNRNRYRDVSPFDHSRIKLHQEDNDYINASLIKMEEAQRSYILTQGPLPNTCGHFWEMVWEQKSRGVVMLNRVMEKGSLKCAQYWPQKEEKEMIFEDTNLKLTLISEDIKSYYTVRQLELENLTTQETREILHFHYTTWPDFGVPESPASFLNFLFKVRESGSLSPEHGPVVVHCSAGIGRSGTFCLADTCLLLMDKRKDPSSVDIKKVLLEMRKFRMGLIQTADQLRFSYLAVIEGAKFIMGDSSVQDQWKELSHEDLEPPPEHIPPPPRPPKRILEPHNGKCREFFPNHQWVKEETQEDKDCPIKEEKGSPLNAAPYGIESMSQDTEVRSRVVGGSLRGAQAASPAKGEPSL

## COC(=O)CCC(C)C1CCC2C3C(O)CC4CC(NCCCCNCc5ccccn5)CCC4(C)C3CCC12C (stereo not drawn) [DPM-1001]
[1]; 5 mg/kg, every third day
  longevity of TX mice (in words): prolongs their life
[1]; TX mice
  survival at one year of age: 90%
[1]; wild-type mice
  survival at one year of age: 100%
[1]; wild-type or TX mice
  toxic side-effects of prolonged treatment: did not have overt toxic side-effects
[2]
  tumor volume / tumor size: reduced tumor volume; also recorded: inhibition of tumor size; also recorded: shrank the size of such tumors
[3]
  complex formation with copper: Formed a Stable Complex with Copper(II)
[4]
  aggregation of PTP1B: did not induce aggregation
[5]
  protection from copper-induced cell death: prevents such cytotoxic effects; also recorded: inhibited copper-induced cell death
[6]
  inhibitory potency for truncation mutants relative to PTP1B1-405 and PTP1B1-394: lower
